Data on three compounds can be found in patent publication US12195457B2, “Aromatic ring derivative as immunoregulation and preparation method and application of aromatic ring derivative” (SHANGHAI JEMINCARE PHARMACEUTICALS CO., LTD, priority 2018, dated 2025).

Data set [1] relates to experimental autoimmune encephalomyelitis (EAE). The data set is described as follows: Experimental autoimmune encephalomyelitis (EAE) in mice. The note with it: days 5-37. Format: in vivo, C57BL/6J mice. How it is done:
Female C57BL/6J mice were immunized with MOG35-55 antigen emulsion. 2 hours after immunization, each animal was injected with 200 ng/100 μL PTX solution intraperitoneally. After 24 hours (the second day), the same dose of PTX solution was injected once again. On the fifth day, the animals in each group began to administer the drug, and each group was given the drug by gavage, with a dosage of 10 mL/kg, once a day for 33 consecutive days (days 5-37). During the experiment, general clinical observation was carried out twice a day, and the weight and EAE clinical scores were measured once a day after administration. The score was divided into five grades: (0. normal mice, no obvious disease; 1. tail weakness or hind limb weakness; 2. tail weakness and hind limb weakness; 3. hemiplegia of hind limbs; 4. complete paralysis of hind limbs; 5, died of EAE or euthanasia in near-death state).

Data set [2] has as its system peripheral blood lymphocyte (PBL) count. The data set is described as follows: Peripheral lymphocyte lowering (PLL) in mice. It is filed as in vivo, C57BL/6j mice. The settings on record: Mus musculus, oral, 5 hours after administration, read-out: IC50 of peripheral blood lymphocyte (PBL) count decrease. How it is done: (§1) Mice: SPF female C57BL/6j mice, weighing 19-22 g. Rats: Male Sprague-Dawley rats, weighing 200-220 g. Feeding environment: the temperature was 23±2° C., the relative humidity was 40-70%, and the lighting time was at 7:00 in the morning to 7:00 in the evening; animals were freely fed with common feed and sterilized drinking water. All animal experiments were approved by the animal ethics committee; all animal experiments were carried out in accordance with the relevant SOP requirements of animal room. Animals were reared adaptively for one week before the experiment.
(§2) Animals were administered orally with a volume of 10 mL/kg. The vehicle for administration was 0.5% DMSO+0.5% MC. Animals were anesthetized with isoflurane 5 hours after administration, and 100-150 μL of peripheral blood was collected through the eye socket in EP tubes, placed on ice. The lymphocyte count of blood analysis was detected by XT-2000i automated hematology analyzer within 30 minutes. Another 20 μL of whole blood was diluted with 40 μL of DDW, and snap frozen in liquid nitrogen, the concentration of the compounds in blood was detected.

The nature of data set [3]: In vivo pharmacokinetics in rats, intravenous injection and oral administration. On the set-up: species or system Sprague Dawley rats. The settings on record: rat; for AUC(0-inf) / clearance / half-life / Cmax: male, Sprague-Dawley, plasma. How it is done: In this experimental embodiment, in vivo pharmacokinetic evaluation was performed in rats by intravenous injection and oral administration.
Experimental methods and conditions: male Sprague Dawley rats were given the test compounds 1 mg/kg (solvent 5% DMSO/15% Solutol/80% Saline) by intravenous injection and 1 mg/kg (solvent 0.5% MC) by oral gavage respectively. 5 min, 15 min, 30 min, 1 hr, 2 hr, 4 hr, 6 hr, 8 hr, 24 hr after administration, blood was collected from submandibular vein, each sample was collected about 0.20 mL, and heparin sodium was used for anti coagulation. After collection, the sample was placed on ice, and the blood was centrifuged to be measured within one hour. Blood drug concentration in plasma was detected by liquid chromatography tandem mass spectrometry (LC/MS/MS), and the pharmacokinetic parameters were calculated by Phoenix WinNonlin software.

In data set [4] the test system is peripheral blood lymphocyte (PBL) count. The data set can be described thus: Peripheral lymphocyte lowering (PLL) in rats. The note with it: Rattus norvegicus, oral, 5 hours after administration, read-out: IC50 of peripheral blood lymphocyte (PBL) count decrease. It is filed as in vivo, Sprague-Dawley rats. Here is the method:
as §1, §2

A further data set deals with DNBS-induced colitis. The data set is described as follows: Rat colitis model induced by DNBS. The note with it: DNBS rats. It is filed as in vivo, Wistar rats. The source says: The Wistar rat ulcerative enteritis model induced by DNBS (2, 4-dinitrobenzenesulfonic acid) is also one of the commonly used models for development of enteritis drugs. DNBS combines with intestinal tissue protein to form complete antigen, which increases vascular permeability, activates inflammatory transmitters, increases fibrinolytic activity, and makes the body produce immune response against intestinal mucosa, resulting in persistent ulcer and inflammation of intestinal mucosa in rats.
The experimental animals were Wistar rats, male, 5-6 weeks old, 140-160 g. The animals were kept in SPF room with a room temperature of 20-26° C., a humidity of 40-70%, fluorescent lamp lighting, 12 hours of lighting (08:00-20:00) and 12 hours of no lighting, with 2-5 animals in each cage (same administration group). […]
Drug treatment: 4 hours after modeling, animals were given with different concentrations of drugs or 0.5% methylcellulose by gavage, 10 mL/kg, once a day for 7 consecutive days. […] After administration, the animals were euthanized, colon tissues were collected, colon length, colon weight and ulcer area were measured, and colon injury in rats was evaluated macroscopically, so as to evaluate the therapeutic effect of the tested drugs on DNBS-induced inflammatory colitis model in rats.

For data set [5] the following is noted: cited from earlier work.
Setting [6] is: intravenous administration 1 mg/kg.

With `O=C(O)CCc1[nH]c2ccc(OCc3ccc(C4CCCC4)c(C(F)(F)F)c3)cc2c1Cl` [Compound 13], in data set [1] (1 mg/kg by gavage once a day), the “disease symptoms (EAE clinical score)” value is “significantly reduce”. Moreover, the IC50 in data set [2] was 18.5 nM. For the same compound, in data set [3] (setting [6]), the total exposure AUC(0-inf) is 4750 ng·h/mL, the clearance is 3.5 mL/min/kg and the half-life was 2.8 h. Besides, in data set [3] (oral administration 1 mg/kg), the area under the curve AUC(0-inf) was determined as 1190 ng·h/mL, the Cmax worked out at 184 ng/mL, the half-life is 3.9 h and the F was 17.4%. Also, the IC50 in data set [4] is 4.1 nM.

As for `Cc1c(CCC(=O)O)[nH]c2ccc(OCc3ccc(C4CCCC4)c(C(F)(F)F)c3)cc12` [Compound 16], the “disease symptoms (EAE clinical score)” value in data set [1] (1 mg/kg by gavage once a day) is listed as “significantly reduce”. Besides, in data set [1] (5 mg/kg by gavage once a day), the “disease symptoms (EAE clinical score)” value is on record as “significantly reduce”. Also, the IC50 in data set [2] was 24.7 nM. In data set [3] (setting [6]), this compound showed an AUC(0-inf) of 4140 ng·h/mL, a clearance of 4.17 mL/min/kg and a half-life of 1.4 h. In data set [3] (oral administration 1 mg/kg), this compound showed a total exposure AUC(0-inf) of 649 ng·h/mL, a Cmax of 162 ng/mL, a half-life of 2.9 h and an F of 13.3%. Further, the half-maximal inhibitory concentration (IC50) in data set [4] is 5.3 nM. Besides, in the data set on DNBS-induced colitis (0.2 mg/kg by gavage once a day for 7 days), the “area of colonic ulcer” value is “significantly reduce”. In addition, in the data set on DNBS-induced colitis (1 mg/kg by gavage once a day for 7 days), the “area of colonic ulcer” value is reported as “significantly reduce”.

Regarding `CCCCCCCCc1ccc(CCC(N)(CO)CO)cc1` [FTY720, Fingolimod], the “half-life in human body” value in data set [5] was 140 to 220 h.
